Source: the supplement of paper PMC10307832

Legend:
Experiment in all cases: relative viability (nuclei count vs DMSO), 5 days (fraction); higher = more cells survive
CAL-12T = test system: CAL-12T
In short: (§1)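 Lung cancer cell lines in 1536-well plates were dosed by pin tool the day after seeding, either with one drug alone or with a fixed anchor-drug dose plus five library-drug doses (not always all listed) in √10 steps. After 5 days, cells were fixed and their nuclei stained in one step (final 0.05% Triton X-100, 1% formaldehyde, 1 ug/ml Hoechst), then counted on 4× images. Relative viability is the nuclei count in treated wells divided by that in vehicle wells. Values are medians of duplicate plates.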

COR-L 105 = test system: COR-L 105
In short: as §1

NCI-H838 = test system: NCI-H838
In short: as §1

NCI-H1666 = test system: NCI-H1666
In short: as §1

PC-14 = test system: PC-14
In short: as §1

NCI-H1993 = test system: NCI-H1993
In short: as §1

NCI-H1975 = test system: NCI-H1975
In short: as §1

HCC-366 = test system: HCC-366
In short: as §1

NCI-H1734 = test system: NCI-H1734
In short: as §1

NCI-H1395 = test system: NCI-H1395
In short: as §1

HARA = test system: HARA
In short: as §1

NCI-H522 = test system: NCI-H522
In short: as §1

NCI-H647 = test system: NCI-H647
In short: as §1

HCC-15 = test system: HCC-15
In short: as §1

H3255 = test system: H3255
In short: as §1

PC-3 [JPC-3] = test system: PC-3 [JPC-3]
In short: as §1

NCI-H3122 = test system: NCI-H3122
In short: as §1

SK-LU-1 = test system: SK-LU-1
In short: as §1

LC-2-ad = test system: LC-2-ad
In short: as §1

NCI-H1944 = test system: NCI-H1944
In short: as §1

LU99A = test system: LU99A
In short: as §1

## COCC1(CO)C(=O)C2CCN1CC2 (configuration not stated) [PRIMA-1MET] + O=C(CCCCCCC(=O)Nc1ccccc1)NO [Vorinostat] (partner 1 µM)
CAL-12T; first compound 0.2 µM
  relative viability: 0.78
CAL-12T; first compound 0.6325 µM
  relative viability: 0.694
CAL-12T; first compound 2 µM
  relative viability: 0.637
CAL-12T; first compound 6.325 µM
  relative viability: 0.589
CAL-12T; first compound 20 µM
  relative viability: 0.0657
COR-L 105; first compound 0.2 µM
  relative viability: 1.13
COR-L 105; first compound 0.6325 µM
  relative viability: 0.859
COR-L 105; first compound 2 µM
  relative viability: 0.769
COR-L 105; first compound 6.325 µM
  relative viability: 0.771
COR-L 105; first compound 20 µM
  relative viability: 0.196
NCI-H838; first compound 0.2 µM
  relative viability: 0.769
NCI-H838; first compound 0.6325 µM
  relative viability: 0.691
NCI-H838; first compound 2 µM
  relative viability: 0.694
NCI-H838; first compound 6.325 µM
  relative viability: 0.762
NCI-H838; first compound 20 µM
  relative viability: 0.546
NCI-H1666; first compound 0.2 µM
  relative viability: 1.03
NCI-H1666; first compound 0.6325 µM
  relative viability: 0.915
NCI-H1666; first compound 2 µM
  relative viability: 1.05
NCI-H1666; first compound 6.325 µM
  relative viability: 1.07
NCI-H1666; first compound 20 µM
  relative viability: 0.956
PC-14; first compound 0.2 µM
  relative viability: 0.722
PC-14; first compound 0.6325 µM
  relative viability: 0.755
PC-14; first compound 2 µM
  relative viability: 0.728
PC-14; first compound 6.325 µM
  relative viability: 0.777
PC-14; first compound 20 µM
  relative viability: 0.019
NCI-H1993; first compound 0.2 µM
  relative viability: 0.743
NCI-H1993; first compound 2 µM
  relative viability: 0.629
NCI-H1993; first compound 6.325 µM
  relative viability: 0.651
NCI-H1993; first compound 20 µM
  relative viability: 0.619
NCI-H1975; first compound 0.2 µM
  relative viability: 0.766
NCI-H1975; first compound 0.6325 µM
  relative viability: 0.657
NCI-H1975; first compound 2 µM
  relative viability: 0.736
NCI-H1975; first compound 6.325 µM
  relative viability: 0.725
NCI-H1975; first compound 20 µM
  relative viability: 0.698
HCC-366; first compound 0.2 µM
  relative viability: 0.596
HCC-366; first compound 0.6325 µM
  relative viability: 0.252
HCC-366; first compound 2 µM
  relative viability: 0.249
HCC-366; first compound 6.325 µM
  relative viability: 0.336
HCC-366; first compound 20 µM
  relative viability: 0.0291
NCI-H1734; first compound 0.2 µM
  relative viability: 1.08
NCI-H1734; first compound 0.6325 µM
  relative viability: 0.718
NCI-H1734; first compound 2 µM
  relative viability: 0.777
NCI-H1734; first compound 6.325 µM
  relative viability: 0.536
NCI-H1734; first compound 20 µM
  relative viability: 0.0676
NCI-H1395; first compound 0.2 µM
  relative viability: 0.623
NCI-H1395; first compound 2 µM
  relative viability: 0.534
NCI-H1395; first compound 6.325 µM
  relative viability: 0.762
NCI-H1395; first compound 20 µM
  relative viability: 0.26
HARA; first compound 0.2 µM
  relative viability: 0.544
HARA; first compound 0.6325 µM
  relative viability: 0.266
HARA; first compound 6.325 µM
  relative viability: 0.587
HARA; first compound 20 µM
  relative viability: 0.499
NCI-H522; first compound 0.2 µM
  relative viability: 0.724
NCI-H522; first compound 0.6325 µM
  relative viability: 0.923
NCI-H522; first compound 2 µM
  relative viability: 0.733
NCI-H522; first compound 6.325 µM
  relative viability: 0.83
NCI-H522; first compound 20 µM
  relative viability: 0.213
NCI-H647; first compound 0.2 µM
  relative viability: 0.849
NCI-H647; first compound 0.6325 µM
  relative viability: 0.444
NCI-H647; first compound 2 µM
  relative viability: 0.549
NCI-H647; first compound 6.325 µM
  relative viability: 0.538
NCI-H647; first compound 20 µM
  relative viability: 0.596
HCC-15; first compound 0.2 µM
  relative viability: 0.962
HCC-15; first compound 0.6325 µM
  relative viability: 0.798
HCC-15; first compound 2 µM
  relative viability: 0.887
HCC-15; first compound 6.325 µM
  relative viability: 0.871
HCC-15; first compound 20 µM
  relative viability: 0.758
H3255; first compound 0.2 µM
  relative viability: 0.745
H3255; first compound 0.6325 µM
  relative viability: 0.779
H3255; first compound 2 µM
  relative viability: 0.809
H3255; first compound 6.325 µM
  relative viability: 0.901
H3255; first compound 20 µM
  relative viability: 0.656
PC-3 [JPC-3]; first compound 0.2 µM
  relative viability: 0.964
PC-3 [JPC-3]; first compound 0.6325 µM
  relative viability: 0.579
PC-3 [JPC-3]; first compound 2 µM
  relative viability: 0.76
PC-3 [JPC-3]; first compound 6.325 µM
  relative viability: 1.03
PC-3 [JPC-3]; first compound 20 µM
  relative viability: 0.747
NCI-H3122; first compound 0.2 µM
  relative viability: 1.01
NCI-H3122; first compound 0.6325 µM
  relative viability: 0.861
NCI-H3122; first compound 2 µM
  relative viability: 0.686
NCI-H3122; first compound 6.325 µM
  relative viability: 1.07
NCI-H3122; first compound 20 µM
  relative viability: 0.861
SK-LU-1; first compound 0.2 µM
  relative viability: 0.852
SK-LU-1; first compound 0.6325 µM
  relative viability: 0.761
SK-LU-1; first compound 2 µM
  relative viability: 0.839
SK-LU-1; first compound 6.325 µM
  relative viability: 0.673
SK-LU-1; first compound 20 µM
  relative viability: 0.561
LC-2-ad; first compound 0.2 µM
  relative viability: 0.798
LC-2-ad; first compound 0.6325 µM
  relative viability: 0.578
LC-2-ad; first compound 2 µM
  relative viability: 0.679
LC-2-ad; first compound 6.325 µM
  relative viability: 0.733
LC-2-ad; first compound 20 µM
  relative viability: 0.645
NCI-H1944; first compound 0.2 µM
  relative viability: 0.724
NCI-H1944; first compound 0.6325 µM
  relative viability: 0.4
NCI-H1944; first compound 2 µM
  relative viability: 0.428
NCI-H1944; first compound 6.325 µM
  relative viability: 0.531
NCI-H1944; first compound 20 µM
  relative viability: 0.539
LU99A; first compound 0.2 µM
  relative viability: 0.628
LU99A; first compound 0.6325 µM
  relative viability: 0.342
LU99A; first compound 2 µM
  relative viability: 0.54
LU99A; first compound 6.325 µM
  relative viability: 0.436
LU99A; first compound 20 µM
  relative viability: 0.113
